What was measured:
[1] = RO membrane compatibility soak, overall conclusion; conditions: 300 ppm, simulated 1 year
[2] = RO membrane compatibility soak, clean water flux and salt rejection; conditions: Koch HRX; 57 ppm, simulated 3 Years, soak 234 hr, 77 F
Description: In particular, the effects of PFA on reverse osmosis members which contain a polyamide structure in comparison with known control chemicals was tested. Three different membranes were tested including Koch HRX, Hydranautics CPAS and Hydranautics ESPA2+. Membranes were soaked in duplicate, in chemistries according to Table 4.
Membranes were then conditioned in Ultrasil 110 at a pH of 11 for 90 minutes at 50° C., followed by a rinse in DI water.
Each of the chemistries, with the exception of PFA was refreshed daily. PFA was refreshed hourly. After the simulated exposure the membranes are rinsed with DI water and placed on the Flat Sheet Membrane skid (Model M20). The membranes were rinsed with DI water for 24 hours at standard UF pressure and temperature. Once 24 hours was completed the membranes were subjected to alkaline conditioning step until solution pH is 11. 15.14 grams of NaCl was added to the recirculating water (2000 ppm NaCl) and the system was allowed to continue circulating. The conductivity of each permeate tube and feed was then measured and recorded and shown as percent rejection. The percent rejection was determined by (conductivity of the feed−conductivity of the permeate)/(conductivity of the feed).

Compound	flux and salt rejection results versus control (in words) [1]	Water Flux (LMH) Peracetic acid [2]
O=COO [PFA, peroxyformic acid]	comparable results to that of the commercially-available control peroxyacetic acid compositions at 3 years	
CC(=O)OO [Peracetic acid]		75.22 LMH
